Among the test systems are U251 CNS; A549 NSCLC; LOX IMVI melanoma; KM12 colon; MCF7 breast; SK-OV-3 ovarian; DU-145 prostate; NCI-H460 lung; M14 melanoma; HS 578T breast.
Holding throughout (assay): inhibition of tumour cell growth, NCI panel, 48 h

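Following 48 hours of exposure in 96-well plates, responses at five concentrations were used to interpolate endpoints linearly. GI50 marks 50% less growth. The concentration for full growth arrest is given as TGI.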

As for `c1csc(-c2ccc(-c3cccc4nsnc34)s2)c1`, the TGI in the test with U251 CNS, with A549 NSCLC, in the test on LOX IMVI melanoma, in the test on KM12 colon, with MCF7 breast and in the test with SK-OV-3 ovarian was greater than 100 µM each time. Also, the TGI with DU-145 prostate, with NCI-H460 lung and with M14 melanoma was greater than 100 µM each time.

For the compound `Cc1cc(Cc2cc(C)c(N)cc2N)c(N)cc1N`, the TGI in the test on U251 CNS, with A549 NSCLC, in the test on LOX IMVI melanoma, in the test with KM12 colon, in the test with MCF7 breast and with SK-OV-3 ovarian was greater than 100 µM each time. In addition, the TGI with DU-145 prostate, with NCI-H460 lung and with M14 melanoma was greater than 100 µM each time.

As to `CCC(C(=O)O)c1ccc(OC)cc1` (configuration not stated), the TGI in the test on U251 CNS, in the test on A549 NSCLC, with LOX IMVI melanoma, in the test with KM12 colon, in the test on SK-OV-3 ovarian and with NCI-H460 lung was greater than 100 µM each time. In the test with M14 melanoma, this compound showed a TGI greater than 100 µM.

Take `COc1ccc(COCCOCc2nc(C#N)c(N)o2)cc1`: the TGI with U251 CNS, in the test on A549 NSCLC, in the test on LOX IMVI melanoma, in the test on KM12 colon, in the test on MCF7 breast and in the test on SK-OV-3 ovarian was greater than 100 µM each time. Also, the TGI with DU-145 prostate, with NCI-H460 lung and in the test on M14 melanoma was greater than 100 µM in each case.

As for `O=C1c2ccccc2-c2c1c1ccccc1c(=O)n2CCNCCNCCNCCn1c2c(c3ccccc3c1=O)C(=O)c1ccccc1-2`, the GI50 was 0.0709 µM in the test on LOX IMVI melanoma; 0.669 µM with KM12 colon; 0.0329 µM in the test on MCF7 breast; 0.33 µM in the test with DU-145 prostate; 0.0707 µM with NCI-H460 lung; 1.61 µM in the test on M14 melanoma. The TGI in the test with LOX IMVI melanoma is 0.572 µM; with KM12 colon, 3.22 µM; with MCF7 breast, 0.298 µM; in the test on DU-145 prostate, 1.76 µM; in the test with NCI-H460 lung, greater than 100 µM; with M14 melanoma, 3.5 µM.

Take `C=C(C)C(=O)OC1C/C(CO)=C\C(O)C/C(C)=C/C2OC(=O)C(=C)C21` (configuration not stated): the TGI in the test on U251 CNS is greater than 100 µM; with A549 NSCLC it was greater than 100 µM; in the test with LOX IMVI melanoma, 35 µM; with KM12 colon it was 38.8 µM; in the test with SK-OV-3 ovarian it was greater than 100 µM; with NCI-H460 lung, 35 µM. Further, the TGI in the test on M14 melanoma was determined as 40.6 µM.

For `CCCCC#C[I+]c1ccccc1`, the TGI worked out at 29.9 µM in the test with U251 CNS; 33.8 µM with A549 NSCLC; 26.9 µM with LOX IMVI melanoma; 27.7 µM in the test with KM12 colon; 30.4 µM in the test with SK-OV-3 ovarian; 26.9 µM in the test on NCI-H460 lung. The TGI in the test with M14 melanoma was 29 µM.

In the case of `Nc1nc(SCCc2ccccc2)c2[nH]cnc2n1`, the TGI with U251 CNS, in the test on A549 NSCLC, in the test on LOX IMVI melanoma, in the test on KM12 colon, with DU-145 prostate and in the test on NCI-H460 lung was greater than 100 µM in each case. Further, the TGI with HS 578T breast and in the test with M14 melanoma was greater than 100 µM each time.

For `CC1CCC(n2c3cnccc3c3cnc(Nc4ccc5c(n4)CCN(C(=O)CO)C5)nc32)CC1` (configuration not stated), the GI50 was 0.478 µM with U251 CNS; 0.882 µM in the test on A549 NSCLC; 0.496 µM with LOX IMVI melanoma; 0.0812 µM in the test with KM12 colon; 0.127 µM in the test on MCF7 breast; greater than 100 µM in the test with SK-OV-3 ovarian. Also, the figures for the GI50 with NCI-H460 lung and in the test with M14 melanoma were 0.422 µM and 0.681 µM, respectively. In addition, the TGI with U251 CNS, in the test on A549 NSCLC, with LOX IMVI melanoma, in the test on KM12 colon, with MCF7 breast and in the test with SK-OV-3 ovarian was greater than 100 µM each time. For the same compound, the TGI with NCI-H460 lung and in the test on M14 melanoma was greater than 100 µM throughout.

Consider `CC(C)CCS(=O)(=O)OCCCCOS(=O)(=O)CCC(C)C`, for which the TGI in the test with U251 CNS, in the test on A549 NSCLC, in the test on LOX IMVI melanoma, in the test on KM12 colon, with SK-OV-3 ovarian and in the test with NCI-H460 lung was greater than 100 µM each time. In the test with M14 melanoma, this compound displayed a TGI of 29.6 µM.

In the case of `N#Cc1c(-c2ccccc2)/c(=C\Nc2cccc(C(F)(F)F)c2)c(=O)n2c1nc1ccccc12`, the TGI in the test with U251 CNS was greater than 100 µM; in the test on A549 NSCLC it was greater than 100 µM; in the test with LOX IMVI melanoma, greater than 100 µM; with KM12 colon it was 53.4 µM; with MCF7 breast, greater than 100 µM; in the test on SK-OV-3 ovarian it was 91.6 µM. The TGI with NCI-H460 lung and in the test with M14 melanoma was greater than 100 µM throughout.

With `C=C1C(=O)O[C@@H]2C(=O)[C@@H](C)CCC/C(C)=C/CC[C@@]3(C)O[C@@H]3C[C@@H]12`, the TGI in the test with U251 CNS was greater than 100 µM; in the test with A549 NSCLC, greater than 100 µM; in the test on LOX IMVI melanoma, 36.9 µM; in the test on KM12 colon, greater than 100 µM; with MCF7 breast, greater than 100 µM; in the test with SK-OV-3 ovarian it was greater than 100 µM. The TGI in the test with DU-145 prostate and in the test with M14 melanoma was greater than 100 µM each time.
